Test results published in patent US20220281848A1, “PYRAZOLE-SUBSTITUTED PYRROLIDINONES AS HERBICIDES” (FMC Corporation, priority 2019, published 2022).

Assays:
wheat = assay: Test D post-emergence, wheat seed treated with a herbicide safener; assay type: in vivo; settings: "Cereals" Postemergent
Outline: (§1)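 Damage was rated visually from 0 (none) to 100 (total), at 20 DAA for pre-emergence and 15 d for post-emergence. Plants grew from safener-treated seed in a glasshouse at 24/18° C. or 20/16° C. day/night, 65% humidity, watered twice daily.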

plants = assay: Test D post-emergence, other plants of Tables D2 and D4; assay type: in vivo; settings: for damage to plant (100=total damage to plant; 0=no damage to plant), ABUTH / damage to plant (100=total damage to plant; 0=no damage to plant), AMARE / damage to plant (100=total damage to plant; 0=no damage to plant), BIDPI / damage to plant (100=total damage to plant; 0=no damage to plant), BRAPL / damage to plant (100=total damage to plant; 0=no damage to plant), CYPES / damage to plant (100=total damage to plant; 0=no damage to plant), DIGSA / damage to plant (100=total damage to plant; 0=no damage to plant), ECHCG / damage to plant (100=total damage to plant; 0=no damage to plant), ELEIN / damage to plant (100=total damage to plant; 0=no damage to plant), EPHHL / damage to plant (100=total damage to plant; 0=no damage to plant), GLXMA / damage to plant (100=total damage to plant; 0=no damage to plant), IPOHE / damage to plant (100=total damage to plant; 0=no damage to plant), ORYSA / damage to plant (100=total damage to plant; 0=no damage to plant), PANMI / damage to plant (100=total damage to plant; 0=no damage to plant), SETFA / damage to plant (100=total damage to plant; 0=no damage to plant), SORVU: post-emergence
Outline: as §1

[1] = "Cereals" Postemergent, Rates 130, evaluated after 15 d
[2] = "Cereals" Postemergent, Rates 250, evaluated after 15 d
[3] = "Cereals" Postemergent, Rates 500, evaluated after 15 d

CN1CC(c2cc(C(F)(F)F)n(C)n2)C(C(=O)Nc2cccc(F)c2C(F)(F)F)C1=O (racemic) [Compound 19]
0: TRZAW damage rating (100=total damage to plant; 0=no damage to plant) (wheat; Rates 130, evaluated after 15 d) | TRZAW damage rating (100=total damage to plant; 0=no damage to plant) (wheat; Rates 250, evaluated after 15 d) | ALOMY damage rating (100=total damage to plant; 0=no damage to plant) (plants; [1]) | ALOMY damage rating (100=total damage to plant; 0=no damage to plant) (plants; [2]) | AVEFA damage rating (100=total damage to plant; 0=no damage to plant) (plants; [1]) | BEAVA damage rating (100=total damage to plant; 0=no damage to plant) (plants; [1]) | BROTE damage rating (100=total damage to plant; 0=no damage to plant) (plants; [1]) | BROTE damage rating (100=total damage to plant; 0=no damage to plant) (plants; [2]) | BROTE damage rating (100=total damage to plant; 0=no damage to plant) (plants; [3]) | BRSNN damage rating (100=total damage to plant; 0=no damage to plant) (plants; [1]) | CHEAL damage rating (100=total damage to plant; 0=no damage to plant) (plants; [1]) | CHEAL damage rating (100=total damage to plant; 0=no damage to plant) (plants; [2]) | GALAP damage rating (100=total damage to plant; 0=no damage to plant) (plants; [1]) | GALAP damage rating (100=total damage to plant; 0=no damage to plant) (plants; [2]) | HORVW damage rating (100=total damage to plant; 0=no damage to plant) (plants; [1]) | HORVW damage rating (100=total damage to plant; 0=no damage to plant) (plants; [2]) | KCHSC damage rating (100=total damage to plant; 0=no damage to plant) (plants; [1]) | KCHSC damage rating (100=total damage to plant; 0=no damage to plant) (plants; [2]) | KCHSC damage rating (100=total damage to plant; 0=no damage to plant) (plants; [3]) | LOLPE damage rating (100=total damage to plant; 0=no damage to plant) (plants; [1]) | LOLPE damage rating (100=total damage to plant; 0=no damage to plant) (plants; [2]) | POAAN damage rating (100=total damage to plant; 0=no damage to plant) (plants; [1]) | POLCO damage rating (100=total damage to plant; 0=no damage to plant) (plants; [1]) | POLCO damage rating (100=total damage to plant; 0=no damage to plant) (plants; [2]) | POLCO damage rating (100=total damage to plant; 0=no damage to plant) (plants; [3]) | STEME damage rating (100=total damage to plant; 0=no damage to plant) (plants; [1]) | STEME damage rating (100=total damage to plant; 0=no damage to plant) (plants; [2]) | STEME damage rating (100=total damage to plant; 0=no damage to plant) (plants; [3]) | VERPE damage rating (100=total damage to plant; 0=no damage to plant) (plants; [1]) | VERPE damage rating (100=total damage to plant; 0=no damage to plant) (plants; [2]) | damage to plant (100=total damage to plant; 0=no damage to plant), ABUTH (plants; rate 130, evaluated after 15 d) | damage to plant (100=total damage to plant; 0=no damage to plant), AMARE (plants; rate 130, evaluated after 15 d) | damage to plant (100=total damage to plant; 0=no damage to plant), BIDPI (plants; rate 130, evaluated after 15 d) | damage to plant (100=total damage to plant; 0=no damage to plant), BIDPI (plants; rate 250, evaluated after 15 d) | damage to plant (100=total damage to plant; 0=no damage to plant), CYPES (plants; rate 130, evaluated after 15 d) | damage to plant (100=total damage to plant; 0=no damage to plant), CYPES (plants; rate 250, evaluated after 15 d) | damage to plant (100=total damage to plant; 0=no damage to plant), CYPES (plants; rate 500, evaluated after 15 d) | damage to plant (100=total damage to plant; 0=no damage to plant), EPHHL (plants; rate 130, evaluated after 15 d) | damage to plant (100=total damage to plant; 0=no damage to plant), GLXMA (plants; rate 130, evaluated after 15 d) | damage to plant (100=total damage to plant; 0=no damage to plant), GLXMA (plants; rate 250, evaluated after 15 d) | damage to plant (100=total damage to plant; 0=no damage to plant), IPOHE (plants; rate 130, evaluated after 15 d) | damage to plant (100=total damage to plant; 0=no damage to plant), IPOHE (plants; rate 250, evaluated after 15 d) | damage to plant (100=total damage to plant; 0=no damage to plant), ORYSA (plants; rate 130, evaluated after 15 d) | damage to plant (100=total damage to plant; 0=no damage to plant), ORYSA (plants; rate 250, evaluated after 15 d) | damage to plant (100=total damage to plant; 0=no damage to plant), PANMI (plants; rate 130, evaluated after 15 d) | damage to plant (100=total damage to plant; 0=no damage to plant), SETFA (plants; rate 130, evaluated after 15 d) | damage to plant (100=total damage to plant; 0=no damage to plant), SORVU (plants; rate 130, evaluated after 15 d) | damage to plant (100=total damage to plant; 0=no damage to plant), SORVU (plants; rate 250, evaluated after 15 d)
10: AVEFA damage rating (100=total damage to plant; 0=no damage to plant) (plants; [2]) | BEAVA damage rating (100=total damage to plant; 0=no damage to plant) (plants; [2]) | BEAVA damage rating (100=total damage to plant; 0=no damage to plant) (plants; [3]) | BRSNN damage rating (100=total damage to plant; 0=no damage to plant) (plants; [3]) | LOLPE damage rating (100=total damage to plant; 0=no damage to plant) (plants; [3]) | VERPE damage rating (100=total damage to plant; 0=no damage to plant) (plants; [3]) | damage to plant (100=total damage to plant; 0=no damage to plant), ABUTH (plants; rate 250, evaluated after 15 d) | damage to plant (100=total damage to plant; 0=no damage to plant), AMARE (plants; rate 250, evaluated after 15 d) | damage to plant (100=total damage to plant; 0=no damage to plant), BIDPI (plants; rate 500, evaluated after 15 d) | damage to plant (100=total damage to plant; 0=no damage to plant), ECHCG (plants; rate 130, evaluated after 15 d) | damage to plant (100=total damage to plant; 0=no damage to plant), ELEIN (plants; rate 130, evaluated after 15 d) | damage to plant (100=total damage to plant; 0=no damage to plant), ELEIN (plants; rate 250, evaluated after 15 d) | damage to plant (100=total damage to plant; 0=no damage to plant), EPHHL (plants; rate 250, evaluated after 15 d) | damage to plant (100=total damage to plant; 0=no damage to plant), ORYSA (plants; rate 500, evaluated after 15 d) | damage to plant (100=total damage to plant; 0=no damage to plant), PANMI (plants; rate 250, evaluated after 15 d)
40: AVEFA damage rating (100=total damage to plant; 0=no damage to plant) (plants; [3]) | CHEAL damage rating (100=total damage to plant; 0=no damage to plant) (plants; [3]) | HORVW damage rating (100=total damage to plant; 0=no damage to plant) (plants; [3]) | POAAN damage rating (100=total damage to plant; 0=no damage to plant) (plants; [3]) | damage to plant (100=total damage to plant; 0=no damage to plant), PANMI (plants; rate 500, evaluated after 15 d)
60: damage to plant (100=total damage to plant; 0=no damage to plant), BRAPL (plants; rate 130, evaluated after 15 d) | damage to plant (100=total damage to plant; 0=no damage to plant), DIGSA (plants; rate 130, evaluated after 15 d) | damage to plant (100=total damage to plant; 0=no damage to plant), ELEIN (plants; rate 500, evaluated after 15 d)
80: damage to plant (100=total damage to plant; 0=no damage to plant), BRAPL (plants; rate 500, evaluated after 15 d) | damage to plant (100=total damage to plant; 0=no damage to plant), DIGSA (plants; rate 500, evaluated after 15 d)
20: TRZAW damage rating (100=total damage to plant; 0=no damage to plant) (wheat; Rates 500, evaluated after 15 d) | BRSNN damage rating (100=total damage to plant; 0=no damage to plant) (plants; [2]) | GALAP damage rating (100=total damage to plant; 0=no damage to plant) (plants; [3]) | SINAR damage rating (100=total damage to plant; 0=no damage to plant) (plants; SINAR, "Cereals" Postemergent, Rates 500, evaluated after 15 d) | damage to plant (100=total damage to plant; 0=no damage to plant), ABUTH (plants; rate 500, evaluated after 15 d) | damage to plant (100=total damage to plant; 0=no damage to plant), AMARE (plants; rate 500, evaluated after 15 d) | damage to plant (100=total damage to plant; 0=no damage to plant), ECHCG (plants; rate 250, evaluated after 15 d) | damage to plant (100=total damage to plant; 0=no damage to plant), GLXMA (plants; rate 500, evaluated after 15 d) | damage to plant (100=total damage to plant; 0=no damage to plant), IPOHE (plants; rate 500, evaluated after 15 d) | damage to plant (100=total damage to plant; 0=no damage to plant), SORVU (plants; rate 500, evaluated after 15 d)
30: ALOMY damage rating (100=total damage to plant; 0=no damage to plant) (plants; [3]) | POAAN damage rating (100=total damage to plant; 0=no damage to plant) (plants; [2]) | damage to plant (100=total damage to plant; 0=no damage to plant), EPHHL (plants; rate 500, evaluated after 15 d)
50: damage to plant (100=total damage to plant; 0=no damage to plant), SETFA (plants; rate 250, evaluated after 15 d)
70: damage to plant (100=total damage to plant; 0=no damage to plant), BRAPL (plants; rate 250, evaluated after 15 d) | damage to plant (100=total damage to plant; 0=no damage to plant), DIGSA (plants; rate 250, evaluated after 15 d) | damage to plant (100=total damage to plant; 0=no damage to plant), ECHCG (plants; rate 500, evaluated after 15 d) | damage to plant (100=total damage to plant; 0=no damage to plant), SETFA (plants; rate 500, evaluated after 15 d)
